Literature values as cited in PubChem BioAssay AID1259409 (Chemical Carcinogenesis Research Information System (CCRIS), 2018).

System: rodent chemically induced tumor inhibition, incidence and multiplicity
Experiment: CCRIS tumor inhibitor studies
Conditions: Carcinogen: 4-(METHYLNITROSAMINO)-1-(3-PYRIDYL)-1-BUTANONE, 64091-91-4, Promoter: NONE USED; for tumour outcome (control, treated, inhibition, significance): Dose [Inhibitor]: 0

Q: With `S=C=NCCc1ccccc1` as the molecule, how does the “tumour outcome (control, treated, inhibition, significance)” value (3 UMOL/G OF DIET FOR 112 WK BEGINNING 1 WK PRIOR TO CARCINOGEN TREATMENT (STUDY DURATION: 112 WK), Route [Inhibitor]: ORAL, Species: RAT, Strain/Sex: F344/MALE, Target Tissue: Type of Lesion: PANCREAS (EXOCRINE): MALIGNANT TUMOR, Dose [Carcinogen]: 2 PPM IN DRINKING WATER FOR 111 WK) read?
A: 4/52 (8%), 0/59 (0%), 100%, p=0.005

Q: And the “tumour outcome (control, treated, inhibition, significance)” value (5 UMOL 1/D FOR 4 D ADMINISTERED PRIOR TO CARCINOGEN DOSE (STUDY DURATION: 116 D), Route [Inhibitor]: GAVAGE, Species: MOUSE, Strain/Sex: STRAIN-A, Target Tissue: Type of Lesion: LUNG: ADENOMA, Dose [Carcinogen]: 10 UMOL IN SALINE ADMINISTERED 2 HR POST LAST AGENT DOSE)?
A: 100%, 93%, 7%, not calculated

Q: And the “tumour outcome (control, treated, inhibition, significance)” value (5 UMOL 1/D FOR 4 D ADMINISTERED PRIOR TO CARCINOGEN TREATMENT (STUDY DURATION: 116 D), Route [Inhibitor]: GAVAGE, Species: MOUSE, Strain/Sex: STRAIN A, Target Tissue: Type of Lesion: LUNG: ADENOMA, Dose [Carcinogen]: 10 UMOL ONCE 2 HR AFTER FINAL DOSE OF INHIBITOR)?
A: 100%, 93%, 7%, not significant

Q: And the “tumour outcome (control, treated, inhibition, significance)” value (5 UMOL 1/D FOR 4 DAYS ADMINISTERED PRIOR TO CARCINOGEN TREATMENT (STUDY DURATION: 116 D), Route [Inhibitor]: GAVAGE, Species: MOUSE, Strain/Sex: STRAIN-A, Target Tissue: Type of Lesion: LUNG: ADENOMA, Dose [Carcinogen]: 10 UMOL ONCE 2 HR AFTER FINAL DOSE OF INHIBITOR)?
A: 100%, 89%, 11%, not significant

Q: And the “tumour outcome (control, treated, inhibition, significance)” value (5 UMOL/D ADMINISTERED TO MICE HETEROZYGOUS (P53+/-) FOR P53 ALLELES FOR 4 CONSECUTIVE DAYS PRIOR TO CARCINOGEN DOSE (, Route [Inhibitor]: GAVAGE, Species: MOUSE, Strain/Sex: (A/J X TSG-P53)F1/FEMALE, Target Tissue: Type of Lesion: LUNG: ADENOMA, Dose [Carcinogen]: 10 UMOL ONCE)?
A: 100%, 40%, 60%, p<0.0001

Q: And the “tumour outcome (control, treated, inhibition, significance)” value (5 UMOL/D ADMINISTERED TO MICE HOMOZYGOUS (P53+/+) FOR P53 ALLELES FOR 4 CONSECUTIVE DAYS PRIOR TO CARCINOGEN DOSE (ST, Route [Inhibitor]: GAVAGE, Species: MOUSE, Strain/Sex: (A/J X TSG-P53)F1/FEMALE, Target Tissue: Type of Lesion: LUNG: ADENOMA, Dose [Carcinogen]: 10 UMOL ONCE)?
A: 100%, 36%, 64%, p<0.0001

Q: And the “tumour outcome (control, treated, inhibition, significance)” value (5 UMOL/D FOR 4 CONSECUTIVE DAYS (STUDY DURATION: 17 WK), Route [Inhibitor]: GAVAGE, Species: MOUSE, Strain/Sex: STRAIN-A/FEMALE, Target Tissue: Type of Lesion: LUNG: ADENOMA, Dose [Carcinogen]: 10 UMOL ONCE 2 HR POST LAST AGENT DOSE)?
A: 100%, 89%, 11%, not calculated

Q: What about the “tumour outcome (control, treated, inhibition, significance)” value (5 UMOL/D FOR 4 CONSECUTIVE DAYS PRIOR TO CARCINOGEN DOSE (STUDY DURATION: 18 WK), Route [Inhibitor]: GAVAGE, Species: MOUSE, Strain/Sex: STRAIN-A/FEMALE, Target Tissue: Type of Lesion: LUNG: ADENOMA, Dose [Carcinogen]: 10 UMOL ONCE) of the same molecule?
A: 100%, 100%, 0%, not significant

Q: And the “tumour outcome (control, treated, inhibition, significance)” value (25 UMOL 1/D FOR 4 D ADMINISTERED PRIOR TO CARCINOGEN TREATMENT (STUDY DURATION: 116 D), Route [Inhibitor]: GAVAGE, Species: MOUSE, Strain/Sex: STRAIN-A, Target Tissue: Type of Lesion: LUNG: ADENOMA, Dose [Carcinogen]: 10 UMOL ONCE 2 HR AFTER FINAL DOSE OF INHIBITOR)?
A: 100%, 30%, 70%, p<0.01

Q: What about the “tumour outcome (control, treated, inhibition, significance)” value (25 UMOL/D FOR 4 CONSECUTIVE DAYS (STUDY DURATION: 17 WK), Route [Inhibitor]: GAVAGE, Species: MOUSE, Strain/Sex: STRAIN-A/FEMALE, Target Tissue: Type of Lesion: LUNG: ADENOMA, Dose [Carcinogen]: 10 UMOL ONCE 2 HR POST LAST AGENT DOSE) of the same molecule?
A: 100%, 30%, 70%, p<0.01

Q: And the “tumour outcome (control, treated, inhibition, significance)” value (652 PPM IN DIET FOR 22 WK BEGINNING 1 WK PRIOR TO CARCINOGEN TREATMENT (STUDY DURATION: 98 WK), Route [Inhibitor]: ORAL, Species: RAT, Strain/Sex: F344/MALE, Target Tissue: Type of Lesion: LUNG: TUMOR, Dose [Carcinogen]: 1.5 MG/KG BW 3/WK FOR 20 WK)?
A: 22/33 (67%), 6/36 (17%), 75%, p<0.001

Q: What about the “tumour outcome (control, treated, inhibition, significance)” value (652 PPM IN DIET FOR 22 WK BEGINNING 1 WK PRIOR TO CARCINOGEN TREATMENT (STUDY DURATION: 98 WK), Route [Inhibitor]: ORAL, Species: RAT, Strain/Sex: F344/MALE, Target Tissue: Type of Lesion: NASAL CAVITY: TUMOR, Dose [Carcinogen]: 1.5 MG/KG BW 3/WK FOR 20 WK) of the same molecule?
A: 28/36 (78%), 17/36 (47%), 40%, not significant

Q: What about the “tumour outcome (control, treated, inhibition, significance)” value (1304 PPM IN DIET FOR 22 WK BEGINNING 1 WK PRIOR TO CARCINOGEN DOSE (STUDY DURATION: 98 WK), Route [Inhibitor]: ORAL, Species: RAT, Strain/Sex: F344/MALE, Target Tissue: Type of Lesion: NASAL CAVITY: TUMOR, Dose [Carcinogen]: 1.5 MG/KG BW 3/WK FOR 20 WK) of the same molecule?
A: 28/36 (78%), 21/36 (58%), 26%, not significant

Q: And the “tumour outcome (control, treated, inhibition, significance)” value (1304 PPM IN DIET FOR 22 WK BEGINNING 1 WK PRIOR TO CARCINOGEN TREATMENT (STUDY DURATION: 98 WK), Route [Inhibitor]: ORAL, Species: RAT, Strain/Sex: F344/MALE, Target Tissue: Type of Lesion: LUNG: TUMOR, Dose [Carcinogen]: 1.5 MG/KG BW 3/WK FOR 20 WK)?
A: 22/33 (67%), 3/36 (8%), 88%, p<0.0001

Q: And the outcome (Dose [Inhibitor]: 3 UMOL/G DIET BEGINNING 1 WK PRIOR TO FIRST CARCINOGEN DOSE (STUDY DURATION: 104 WK), Route [Inhibitor]: ORAL, Species: RAT, Strain/Sex: F344/MALE, Target Tissue: Type of Lesion: ADRENAL GLAND: ADENOMA, Dose [Carcinogen]: 1.76 MG/KG 3/WK FOR 20 WK)?
A: 0/40 (0%), 2/40 (5%), -5%, not calculated
